We go through two compounds from ChEMBL document CHEMBL1159214, “The antiallergic activities of synthetic acrophylline and acrophyllidine” (J Nat Prod, 1995).

In assay [1] the test system is Mast cell. Put plainly: Inhibition of compound 48/80-challenged Sprague-Dawley rat peritoneal mast cell degranulation assessed as beta-glucuronidase release up to 100 uM administered 3 mins prior to compound 48/80 challenge measured after 15 mins. The format is functional, cell-based.
Assay [2] has as its system Mus musculus. Put plainly: Suppression of anti-dinitrophenyl-coupled albumin-induced passive cutaneous anaphylaxis reaction-associated ear edema in mouse assessed as reduction of volume of plasma exudation at 30 umol/kg, ip administered 30 mins prior to DNP-albumin challenge measured after 45 mins. Type of assay: functional, organism-based.
Assay [3] deals with Mast cell. Kind of assay: Inhibition of compound 48/80-challenged Sprague-Dawley rat peritoneal mast cell degranulation assessed as beta-glucuronidase release at 10 uM administered 3 mins prior to compound 48/80 challenge measured after 15 mins. Type of assay: functional, cell-based.
Assay [4] relates to Mast cell. Kind of assay: Inhibition of compound 48/80-challenged Sprague-Dawley rat peritoneal mast cell degranulation assessed as beta-glucuronidase release at 30 uM administered 3 mins prior to compound 48/80 challenge measured after 15 mins. The format is functional, cell-based.

The structures appear in SMILES notation. Activity calls are given as the source filed them. The calls are words filed in the database; no cut-off is given here.

Turning to `COc1ccc2c(=O)c3ccoc3n(CCC(C)(C)O)c2c1`, the outcome in assay [1] was inactive. The outcome in assay [2] was Active.

Regarding `COc1ccc2c(=O)c3ccoc3n(CC=C(C)C)c2c1`, the outcome in assay [3], in assay [2] and in assay [4] was Active.
